Results reported in paper PMC3029496 (Biochemistry, 2010).
Read-outs that look alike come from different tables or passages of the source.

How the values were obtained:
[1] = molecular target: T1, PncA (Mycobacterium tuberculosis, UniProt I6XD65); experiment: biochemical; assay type: biochemical
[2] = molecular target: Mycobacterium tuberculosis PncA (MtPncA) (Mycobacterium tuberculosis, UniProt I6XD65)
[3] = molecular target: T1, PncA; experiment: Inactivation of PncA by iodoacetamide; assay type: biochemical; details: concentration and pH dependent loss of activity
[4] = molecular target: T1, PncA; assay type: biochemical
[5] = system: NC(=O)c1cnccn1; experiment: purified protein, by the assay type; details: pH 7.5; 25.0 °C

Mycobacterium tuberculosis PncA (MtPncA), sequence (I6XD65 whole entry): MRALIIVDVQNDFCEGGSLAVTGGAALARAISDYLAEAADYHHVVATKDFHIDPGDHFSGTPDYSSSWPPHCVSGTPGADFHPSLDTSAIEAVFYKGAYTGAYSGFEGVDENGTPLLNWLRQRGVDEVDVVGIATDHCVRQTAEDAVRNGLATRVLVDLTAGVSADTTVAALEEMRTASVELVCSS
T1 sequence (I6XD65 whole entry): as above

For `O=Cc1cccnc1` [3-pyridine carboxaldehyde], which mode of inhibition [1] is on record?
Its mode of inhibition is “competitive inhibitor”.

For `N#Cc1cccnc1` [3-pyridinecarbonitrile], which mode of inhibition [1] is on record?
The mode of inhibition was “reversible, competitive inhibitor”.

And the Ki ([1]; Ki, reversible, competitive inhibitor)?
Its Ki is about 100 µM.

What about the “enzymatic activity with the compound as substrate” value (shortened to “enzymatic activity”) [2] of the same compound?
Its value is “Neither compound is a substrate”.

For `NC(=O)c1ccc(N)nc1` [6-aminonicotinamide], which “enzymatic activity” value [2] is on record?
The value was “did not observe any enzymatic activity”.

For `O=C(O)CN(CCN(CC(=O)O)CC(=O)O)CC(=O)O` [EDTA, ethylenediaminetetraacetic acid], which “effect of addition on MtPncA activity” value [2] is on record?
The value was “neither the addition of 5 mM EDTA, nor reported inhibitory metals (Zn^+2 for MtPncA) resulted in any decrease in activity”.

With `NC(=O)c1ccccc1` [benzamide] as the compound, how does the “enzymatic activity” value [2] read?
Its value is “did not observe any enzymatic activity”.

Which “inactivation of PncA” value [3] does the source give for `NC(=O)CI` [iodoacetamide] here?
Its value is “inactivator of PncA”.

`N#Cc1cnccn1` [pyrazinecarbonitrile] was tested. Which “enzymatic activity” value [2] did it give?
Its value is “Neither compound is a substrate”.

And the kinact/KI [4]?
The kinact/KI was 975 M⁻¹ s⁻¹.

And the mode of inhibition [4]?
The mode of inhibition was “irreversible inactivator”.

And the kinact ([4]; pH 7.5)?
The kinact was “Kinact = 0.06 ± 0.01 sec^−1 Ki = 61 ± 3 μM”.

What about the KI (inactivation) ([4]; read-out: Ki (inactivation), pH 7.5) of the same compound?
The KI (inactivation) was 61 µM.

How did the Km [5] turn out when (Mycobacterium tuberculosis H37Rv) was run?
The Km was 300 ± 40 µM.

What about the kcat [5] of the same compound?
The kcat was 3.8 ± 0.1 s⁻¹.

And the kcat/Km [5]?
The kcat/Km was 13000 M⁻¹ s⁻¹.
